Read-outs that look alike come from different tables or passages of the source.
How the values were obtained:
[1] = at 25° C., literature values as published in Wikipedia, cited from earlier work
[2] = Solvency of solvent compositions for Monomer A and Monomer B (height of solid residue); type: physicochemical; settings: for concentration of monomer in the final solution: in each of the samples with solvency of 100% (NMF, IE1, IE2, IE3, IE4)
Method: For every sample, the height of the monomer mixture in the vial was 4 mm. The vials were placed in an oven at 54° C. without agitation for 13 hours. The vials returned to room temperature and were photographed again with the PICA-II instrument. The height of the solid residue was observed. It is considered that the residue (if present) was undissolved Monomer A, undissolved Monomer B, or a mixture thereof. The solvency % of each solvent composition was determined as follows: […]

Compound	concentration of monomer in the final solution [2]	Water Solubility [1]	other results
CCCCOCCOCCO [DBE, diethylene glycol n-butyl ether]			Water Solubility ([1]; in words): soluble
O=C1OC(=O)c2cc(Oc3ccc4c(c3)C(=O)OC4=O)ccc21 [Monomer A]	5 % by weight based on the weight of the solvent composition		
Nc1ccc(-c2ccc(N)cc2C(F)(F)F)c(C(F)(F)F)c1 [Monomer B]	5 % by weight based on the weight of the solvent composition		
CNC=O [NMF, n-methylformamide, reference compound]			Solvency (%) ([2]; 0.125 g Monomer A + 0.125 g Monomer B in 2.5 g solvent, 54° C. without agitation for 13 hours, then room temperature): 100%; Quality as solvent for Monomer A and Monomer B ([2]; judgement in words based on Table 4): good solvent
OCCOc1ccccc1 [POE, 2-phenoxyethanol]		26 g/kg	
NC(N)=O [Urea]		545 mg/mL	
